This note sets out measurements from paper PMC4995014, “Identification of ABC Transporter Interaction of a Novel Cyanoquinoline Radiotracer and Implications for Tumour Imaging by Positron Emission Tomography” (PLoS ONE, 2016).

Data set [1] has as its system MCF7MX cells. In words: SRB cell viability assay in MCF7MX cells (ABCG2 overexpressing). As to conditions: for GI50: Homo sapiens, MCF7/MX, 72 h, SRB. The data set is classed as cell-based, human. The protocol: (§1) Cell viability by the sulforhodamine B (SRB) assay was used to assess cell growth and cytotoxicity of test compounds [29]. Cells were seeded at densities of 3,500 to 5,000 cells per well in 96 well plates overnight and pre-treated for 1 h with ABC transporter modulators: 10 μM fumitremorgin C (FTC; in MCF7MX and MCF7 cells), or 0.3 μM of zosuquidar (in 3T3 and 3T3-MDR1). Cells were then treated with test compounds for 72 h, at 37°C. After drug treatment, cells were fixed by addition of 50% trichloroacetic acid (TCA), and the plates washed and dried to allow staining with 0.4% solution of sulforhodamine B (Sigma) in 1% acetic acid for 30 minutes. Excess dye was removed upon washing with 1% acetic acid. Plates were dried and bound protein was solubilised upon addition of 150 μL of 10 mM Tris base buffer. Absorbance was measured at 540 nm using Thermo Multiskan-Ex plate reader. Cell viability versus compound concentration curves were plotted as a percentage of control cells. The concentration of drug that gave 50% inhibition in cell growth (GI50) was extrapolated from these curves using the sigmoid curve fit with variable slope in Prism (GraphPad Prism version 5.01, GraphPad Software, San Diego California USA). Three to six replicate wells were used for each drug concentration and experiments were carried out on three separate occasions for each compound.

Data set [2] concerns ABCB1 (MDR1). Description: SRB cell viability assay in 3T3-MDR1 cells (ABCB1 expressing). The data set is classed as cell-based. The following applies: mouse, 3T3-MDR1 cells (ABCB1 expressing), 72 h, SRB. The procedure:
as §1

Data set [3] deals with 3T3-MDR1 cells. The description is as above. The data set is classed as cell-based. The following applies: GI50 3T3-MDR1 over GI50 3T3, without zosuquidar. The procedure: as §1
The target of data set [4] is T1, wildtype EGFR (A549 cells) (Homo sapiens, UniProt P00533).
T1 construct: host or cells: A549
In words: Inhibition of EGFR autophosphorylation (p-EGFR Y1068, western blot) in A549 cells. The following applies: 3 h incubation, EGF stimulated. The class given is cell-based. The protocol: (§2) Affinity of the cyanoquinolines for EGFR was established by measuring their inhibition of EGFR autophosphorylation via western blot. Cells were seeded in 6 well plates and following 24 h of growth, were subject to overnight serum starvation. The cells were then treated with increasing concentrations of cyanoquinolines prepared in serum free growth media from a DMSO stock (final DMSO concentration < 1%) for 3 h at 37°C, and stimulated for receptor autophosphorylation by addition of 100 ng/mL of EGF during the last 15 minutes of drug incubation. After 3 h the cells were placed on ice, media removed and then the cells were washed two times with ice cold phosphate buffered saline (PBS). Lysates were analysed by western blot to measure changes to p-EGFR Y1068.
Cell lysates were prepared by addition of radioimmunoprecipitation assay (RIPA) buffer (50mM Tris-HCl pH 7.2, 150mM NaCl, 1% NP40, 1% sodium deoxycholate, 0.1% sodium dodecyl sulfate) supplemented with 1 x protease and phosphatase inhibitor cocktail (1mM 4-(2-Aminoethyl)benzenesulfonylfluoride hydrochloride, 800 nM aprotinin, 50 μM bestatin, 15 μM E-64, 5μM EDTA, 20 μM leupeptin, 10 μM pepstatin A; Thermo scientific, Waltham, Massachusetts, USA). […] Cellular protein levels were assessed using a bicinchoninic acid (BCA) protein assay kit according to the manufacturer’s instructions (Thermo scientific). […]
(In general: A western blot detects proteins with antibodies after separation by electrophoresis.)

For data set [5], the target named is T2, EGFR Del E746-A750/T790M (PC9ER cells) (Homo sapiens, UniProt P00533, DEL746-750/T790M).
T2 construct: endogenous in cells; host or cells: PC9ER (Dr Olivier Pardo, Imperial College London)
In words: Inhibition of EGFR autophosphorylation (p-EGFR Y1068, western blot) in PC9ER cells. The data set is classed as cell-based. The protocol: as §2
Cells were collected into a microcentrifuge tube and sonicated for 30 seconds on ice. Cellular protein levels were assessed using a bicinchoninic acid (BCA) protein assay kit according to the manufacturer’s instructions (Thermo scientific). […] Samples were transferred to polyvinylidene difluoride (PVDF) membrane using Trans-Blot Turbo system BIO-RAD (Hercules, California, USA). […] The membranes were then incubated overnight with primary antibody prepared in 1% milk or 1% BSA in TBST. […] Membranes were washed a further three times for 10 minutes with TBST. Blots were visualised using chemoluminescence (ECL, GE Healthcare, Little Chalfont, UK) and developed on Amersham Hyperfilm ECL (GE Healthcare). β-Actin was used as a loading control.

In data set [6] the target is T3, EGFR L858R (H3255 cells) (Homo sapiens, UniProt P00533, L858R).
T3 construct: host or cells: H3255
Description: Inhibition of EGFR autophosphorylation (p-EGFR Y1068, western blot) in H3255 cells. The following applies: 3 h incubation, EGF stimulated. The class given is cell-based. The procedure:
as §2
Cells were collected into a microcentrifuge tube and sonicated for 30 seconds on ice. Cellular protein levels were assessed using a bicinchoninic acid (BCA) protein assay kit according to the manufacturer’s instructions (Thermo scientific). […] Samples were transferred to polyvinylidene difluoride (PVDF) membrane using Trans-Blot Turbo system BIO-RAD (Hercules, California, USA). […] The membranes were then incubated overnight with primary antibody prepared in 1% milk or 1% BSA in TBST. […] Membranes were washed a further three times for 10 minutes with TBST. […]

T2 sequence (P00533 with tags, fused parts or gaps DEL746-750/T790M): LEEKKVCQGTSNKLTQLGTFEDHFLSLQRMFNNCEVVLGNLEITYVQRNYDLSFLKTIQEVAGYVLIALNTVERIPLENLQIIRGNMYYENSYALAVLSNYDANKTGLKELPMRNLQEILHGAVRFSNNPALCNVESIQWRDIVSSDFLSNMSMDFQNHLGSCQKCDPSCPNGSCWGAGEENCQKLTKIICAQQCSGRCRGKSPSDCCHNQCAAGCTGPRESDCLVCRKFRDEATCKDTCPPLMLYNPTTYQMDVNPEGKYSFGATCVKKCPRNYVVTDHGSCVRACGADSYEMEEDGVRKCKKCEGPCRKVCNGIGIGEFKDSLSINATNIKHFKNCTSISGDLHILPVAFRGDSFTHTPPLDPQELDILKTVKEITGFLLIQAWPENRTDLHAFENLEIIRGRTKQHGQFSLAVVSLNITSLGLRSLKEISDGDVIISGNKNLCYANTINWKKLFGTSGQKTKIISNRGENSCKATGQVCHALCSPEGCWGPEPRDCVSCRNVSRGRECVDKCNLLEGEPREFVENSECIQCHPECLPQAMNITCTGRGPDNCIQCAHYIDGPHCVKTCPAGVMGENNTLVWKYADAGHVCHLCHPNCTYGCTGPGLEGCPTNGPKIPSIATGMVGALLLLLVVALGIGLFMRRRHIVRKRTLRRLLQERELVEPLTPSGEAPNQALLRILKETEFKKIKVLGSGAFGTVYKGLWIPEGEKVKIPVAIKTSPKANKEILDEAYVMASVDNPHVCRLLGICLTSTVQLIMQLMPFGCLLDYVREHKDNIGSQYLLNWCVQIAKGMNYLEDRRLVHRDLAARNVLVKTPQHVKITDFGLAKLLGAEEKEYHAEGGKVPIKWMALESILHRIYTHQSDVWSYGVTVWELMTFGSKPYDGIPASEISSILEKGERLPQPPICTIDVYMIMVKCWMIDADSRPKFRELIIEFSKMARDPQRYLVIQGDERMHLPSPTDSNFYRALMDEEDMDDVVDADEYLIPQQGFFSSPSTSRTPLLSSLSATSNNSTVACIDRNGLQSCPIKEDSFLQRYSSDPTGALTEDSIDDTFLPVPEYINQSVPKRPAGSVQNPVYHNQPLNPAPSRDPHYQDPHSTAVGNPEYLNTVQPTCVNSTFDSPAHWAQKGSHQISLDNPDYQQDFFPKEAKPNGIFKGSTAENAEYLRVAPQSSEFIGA
T3 sequence (P00533 25-1210 L858R): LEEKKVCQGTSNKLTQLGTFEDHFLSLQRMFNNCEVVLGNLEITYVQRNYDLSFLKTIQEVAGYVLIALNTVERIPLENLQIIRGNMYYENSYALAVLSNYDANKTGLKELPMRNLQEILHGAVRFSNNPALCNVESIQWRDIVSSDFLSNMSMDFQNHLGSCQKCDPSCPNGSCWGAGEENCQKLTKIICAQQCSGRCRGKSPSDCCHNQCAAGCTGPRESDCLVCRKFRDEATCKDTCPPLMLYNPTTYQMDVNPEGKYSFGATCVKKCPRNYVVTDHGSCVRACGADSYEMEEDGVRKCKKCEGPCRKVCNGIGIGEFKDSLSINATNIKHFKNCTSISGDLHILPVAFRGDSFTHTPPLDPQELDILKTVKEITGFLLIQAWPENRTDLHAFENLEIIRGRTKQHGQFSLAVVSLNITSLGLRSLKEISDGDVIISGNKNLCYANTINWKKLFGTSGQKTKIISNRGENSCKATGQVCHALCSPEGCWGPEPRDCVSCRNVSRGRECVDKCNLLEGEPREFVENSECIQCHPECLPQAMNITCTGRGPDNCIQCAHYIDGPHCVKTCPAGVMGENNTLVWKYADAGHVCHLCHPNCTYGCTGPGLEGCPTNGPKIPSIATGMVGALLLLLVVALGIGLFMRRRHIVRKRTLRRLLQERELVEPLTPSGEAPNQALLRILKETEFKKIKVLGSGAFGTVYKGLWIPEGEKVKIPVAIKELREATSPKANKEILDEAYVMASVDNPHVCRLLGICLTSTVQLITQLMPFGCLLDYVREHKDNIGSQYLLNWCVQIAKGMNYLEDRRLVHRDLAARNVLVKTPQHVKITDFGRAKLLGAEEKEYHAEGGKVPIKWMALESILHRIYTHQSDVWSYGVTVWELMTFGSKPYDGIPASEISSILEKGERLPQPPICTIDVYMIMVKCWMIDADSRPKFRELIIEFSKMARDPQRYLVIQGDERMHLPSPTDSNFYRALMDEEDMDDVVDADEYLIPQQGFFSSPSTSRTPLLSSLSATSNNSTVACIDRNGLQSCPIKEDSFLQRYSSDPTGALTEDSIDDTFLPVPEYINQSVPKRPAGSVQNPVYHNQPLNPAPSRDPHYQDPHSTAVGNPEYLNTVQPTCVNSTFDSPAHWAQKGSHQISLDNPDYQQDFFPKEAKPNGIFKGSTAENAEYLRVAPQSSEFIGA
T1 sequence (P00533 25-1210): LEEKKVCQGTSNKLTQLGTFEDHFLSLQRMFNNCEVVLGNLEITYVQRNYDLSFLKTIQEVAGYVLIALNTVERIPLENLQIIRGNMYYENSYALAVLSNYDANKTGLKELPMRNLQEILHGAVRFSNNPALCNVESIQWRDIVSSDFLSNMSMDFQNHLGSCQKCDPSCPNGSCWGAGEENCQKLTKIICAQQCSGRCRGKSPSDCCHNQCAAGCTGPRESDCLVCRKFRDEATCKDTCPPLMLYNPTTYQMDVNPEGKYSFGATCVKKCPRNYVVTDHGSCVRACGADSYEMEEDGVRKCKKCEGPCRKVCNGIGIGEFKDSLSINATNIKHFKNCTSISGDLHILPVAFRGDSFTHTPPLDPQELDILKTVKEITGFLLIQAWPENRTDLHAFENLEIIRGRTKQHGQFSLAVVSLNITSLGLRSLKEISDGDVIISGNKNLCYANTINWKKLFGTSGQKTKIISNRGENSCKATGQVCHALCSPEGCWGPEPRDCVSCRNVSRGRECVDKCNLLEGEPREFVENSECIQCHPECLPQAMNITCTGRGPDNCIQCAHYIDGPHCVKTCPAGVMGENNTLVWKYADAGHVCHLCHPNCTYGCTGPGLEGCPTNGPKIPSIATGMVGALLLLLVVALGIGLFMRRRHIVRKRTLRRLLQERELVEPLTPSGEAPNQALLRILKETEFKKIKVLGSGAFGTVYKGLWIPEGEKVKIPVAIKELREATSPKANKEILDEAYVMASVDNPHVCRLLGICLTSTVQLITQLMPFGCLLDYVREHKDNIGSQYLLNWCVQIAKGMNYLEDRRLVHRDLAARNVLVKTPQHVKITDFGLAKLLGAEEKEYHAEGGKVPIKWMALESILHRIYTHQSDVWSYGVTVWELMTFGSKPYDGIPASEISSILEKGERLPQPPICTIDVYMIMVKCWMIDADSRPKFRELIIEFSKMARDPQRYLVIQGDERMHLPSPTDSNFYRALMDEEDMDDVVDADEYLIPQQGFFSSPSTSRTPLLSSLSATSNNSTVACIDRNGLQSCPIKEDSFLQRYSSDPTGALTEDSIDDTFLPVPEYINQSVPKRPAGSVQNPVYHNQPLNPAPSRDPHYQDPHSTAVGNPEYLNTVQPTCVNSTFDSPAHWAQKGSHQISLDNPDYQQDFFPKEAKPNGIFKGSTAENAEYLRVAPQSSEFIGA

For the compound `CCOc1cc2ncc(C#N)c(Nc3ccc(F)c(Cl)c3)c2cc1NC(=O)/C=C/CNCc1cn(CCF)nn1` [FED6, (2E)-N-{4-[(3-chloro-4-fluorophenyl)amino]-3-cyano-7-ethoxyquinolin-6-yl}-4-({[1-(2-fluoroethyl)-1H-1,2,3-triazol-4-yl]methyl}amino)-but-2-enamide], in data set [1] (GI50 MCF7MX over GI50 MCF7, without FTC), the “fold increase in GI50 in the ABCG2 overexpressing cell line” value came to 6.3 fold. For the same compound, the GI50 (as a rule, the concentration at which growth is held to half of that of the control) in data set [1] (1 h pre-treatment with 10 μM FTC) was found to be 37.9 ± 21.9 µM; in data set [1] (without FTC), 75.9 ± 43.8 µM. For the same compound, the GI50 at 72 h was 13.6 ± 0.6 µM in data set [2] (with zosuquidar 0.3 μM (1 h pre-treatment), pre-treatment with 0.3 μM zosuquidar) and > 100 µM in data set [2] (without zosuquidar). Also, in data set [3], the “fold increase in GI50 in the ABCB1 overexpressing cell line” value is > 10 fold. In addition, the concentration for half-maximal inhibition (IC50) (in general, the concentration that inhibits the measured activity by half) in data set [4] came to 0.7 µM; in data set [5] (3 h incubation, EGF stimulated), 0.045 µM; in data set [6], 0.008 µM. Also, the “fold higher IC50 (p-EGFR) in PC9ER compared to PC9” value in data set [5] (PC9ER versus isogenic PC9) worked out at 2 fold.
